Data: patent publication US20250215030A1, “STAT MODULATORS AND USES THEREOF” (Recludix Pharma, Inc., priority 2022, published 2025)

Columns and labels:
pSTAT3 (pY705-STAT3) = molecular target: T1, pSTAT3 (pY705-STAT3) (Homo sapiens, UniProt P40763); assay: MSD-pSTAT-PBMC Assay (pSTAT3, IL-6 stimulated); format: cell-based; conditions: PBMC, compound 3 hrs, then 10 ng/mL IL-6 for 10 min; MSD pY705-STAT3; read-out: pSTAT3
T1 construct: host or cells: cryopreserved PBMC
Method in brief: (§1)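 Human PBMCs (50,000 cells/well for STAT3, 25,000 for STAT6) treated with compound 3 h, then stimulated 10 min with 10 ng/mL IL-6 or 1 ng/mL IL-4. Lysate pSTAT3 (pY705) or pSTAT6 (pY641) measured by MSD sandwich electrochemiluminescence. Signal minus unstimulated, normalized to DMSO; IC50 by variable-slope nonlinear regression.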

pSTAT6 (pY641-STAT6) = molecular target: T2, pSTAT6 (pY641-STAT6) (Homo sapiens, UniProt P42226); assay: MSD-pSTAT-PBMC Assay (pSTAT6, IL-4 stimulated); format: cell-based; conditions: compound 3 hrs, then 1 ng/mL IL-4 for 10 min
T2 construct: host or cells: cryopreserved PBMC
T2 sequence (P42226 1-847): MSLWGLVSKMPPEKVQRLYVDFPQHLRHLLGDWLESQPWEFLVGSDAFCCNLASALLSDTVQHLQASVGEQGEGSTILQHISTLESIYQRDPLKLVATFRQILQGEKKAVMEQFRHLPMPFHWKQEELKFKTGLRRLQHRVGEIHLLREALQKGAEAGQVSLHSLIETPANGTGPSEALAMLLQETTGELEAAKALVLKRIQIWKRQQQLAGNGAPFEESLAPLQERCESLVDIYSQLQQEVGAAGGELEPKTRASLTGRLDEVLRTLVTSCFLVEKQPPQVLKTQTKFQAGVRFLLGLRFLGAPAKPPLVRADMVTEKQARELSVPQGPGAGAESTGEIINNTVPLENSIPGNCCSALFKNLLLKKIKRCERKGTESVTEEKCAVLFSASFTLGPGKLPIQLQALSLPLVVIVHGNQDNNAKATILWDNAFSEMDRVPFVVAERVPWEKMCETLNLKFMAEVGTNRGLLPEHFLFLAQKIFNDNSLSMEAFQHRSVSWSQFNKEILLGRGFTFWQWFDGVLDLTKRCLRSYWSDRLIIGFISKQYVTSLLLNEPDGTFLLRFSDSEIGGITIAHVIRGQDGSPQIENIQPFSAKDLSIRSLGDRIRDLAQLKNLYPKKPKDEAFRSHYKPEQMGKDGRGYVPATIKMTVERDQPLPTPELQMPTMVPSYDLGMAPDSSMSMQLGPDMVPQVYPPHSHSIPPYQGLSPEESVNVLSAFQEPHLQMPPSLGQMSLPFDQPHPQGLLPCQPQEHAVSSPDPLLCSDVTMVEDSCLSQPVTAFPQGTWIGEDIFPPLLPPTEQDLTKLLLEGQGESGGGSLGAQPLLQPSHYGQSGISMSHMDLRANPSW
Method in brief: as §1

T1 sequence (P40763 whole entry): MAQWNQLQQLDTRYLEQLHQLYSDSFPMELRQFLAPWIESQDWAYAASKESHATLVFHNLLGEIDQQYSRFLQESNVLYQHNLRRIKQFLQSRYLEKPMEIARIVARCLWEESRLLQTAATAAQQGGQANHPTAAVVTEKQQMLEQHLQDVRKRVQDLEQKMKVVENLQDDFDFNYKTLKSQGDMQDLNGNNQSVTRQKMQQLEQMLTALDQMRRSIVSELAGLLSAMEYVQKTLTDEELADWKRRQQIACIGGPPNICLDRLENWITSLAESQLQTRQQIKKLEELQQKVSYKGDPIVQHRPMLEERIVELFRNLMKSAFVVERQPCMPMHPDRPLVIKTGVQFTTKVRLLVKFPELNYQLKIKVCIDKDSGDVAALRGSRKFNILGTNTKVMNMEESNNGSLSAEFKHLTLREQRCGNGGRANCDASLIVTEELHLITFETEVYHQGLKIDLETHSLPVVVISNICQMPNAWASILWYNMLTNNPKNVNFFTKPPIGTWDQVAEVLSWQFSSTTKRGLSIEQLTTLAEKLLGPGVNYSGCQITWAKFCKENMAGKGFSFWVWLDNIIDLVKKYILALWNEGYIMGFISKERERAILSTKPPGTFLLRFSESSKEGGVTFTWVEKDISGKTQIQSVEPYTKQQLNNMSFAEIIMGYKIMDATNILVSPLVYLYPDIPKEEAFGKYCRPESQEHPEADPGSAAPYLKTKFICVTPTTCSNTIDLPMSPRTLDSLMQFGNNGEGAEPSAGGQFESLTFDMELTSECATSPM

Compound	IC50 (pSTAT3 (pY705-STAT3))	IC50 (pSTAT6 (pY641-STAT6))
CC(C)OC(=O)CNP(=O)(Oc1ccccc1)C(F)(F)c1ccc2sc(C(=O)N[C@H]3C[C@@H]4C[C@@H]4C[C@H]4CC[C@@H](C(=O)N5CC(C(=O)N6CCOCC6)C5)N4C3=O)cc2c1 (stereo partly drawn) [Example 2, isopropyl ((difluoro(2-(((3S,6S,7aS,8aR,9aR)-3-(3-(morpholine-4-carbonyl)azetidine-1-carbonyl)-5-oxodecahydro-1H-cyclopropa[d]pyrrolo[1,2-a]azocin-6-yl)carbamoyl)benzo[b]thiophen-5-yl)methyl)(phenoxy)phosphoryl)glycinate]	> 3 µM	> 3 µM
CCCCC(=O)OCOP(=O)(OCOC(=O)CCCC)C(F)(F)c1ccc2sc(C(=O)N[C@H]3C[C@@H]4C[C@@H]4C[C@H]4CC[C@@H](C(=O)N5CC(C(=O)N6CCOCC6)C5)N4C3=O)cc2c1 [Example 4, (((difluoro(2-(((3S,6S,7aS,8aR,9aR)-3-(3-(morpholine-4-carbonyl)azetidine-1-carbonyl)-5-oxodecahydro-1H-cyclopropa[d]pyrrolo[1,2-a]azocin-6-yl)carbamoyl)benzo[b]thiophen-5-yl)methyl)phosphoryl)bis(oxy))bis(methylene) dipentanoate]	< 0.1 µM	> 3 µM
